Reference: patent publication US5538987A, “Imidazole ethers having a II antagonist activity” (Istituto Luso Farmaco D'Italia S.p.A., priority 1992, dated 1996)

Legend:
[1] = target: T1, A II receptor (Oryctolagus cuniculus, UniProt P34976); test: inhibition of the A II-induced contraction in the rabbit aorta; assay type: cell-based; settings: in vitro, read-out: pA2 (converted)
T1 construct: A II-induced contraction in the rabbit aorta; from tissue; host or cells: rabbit aorta
T1 sequence (P34976 1-359): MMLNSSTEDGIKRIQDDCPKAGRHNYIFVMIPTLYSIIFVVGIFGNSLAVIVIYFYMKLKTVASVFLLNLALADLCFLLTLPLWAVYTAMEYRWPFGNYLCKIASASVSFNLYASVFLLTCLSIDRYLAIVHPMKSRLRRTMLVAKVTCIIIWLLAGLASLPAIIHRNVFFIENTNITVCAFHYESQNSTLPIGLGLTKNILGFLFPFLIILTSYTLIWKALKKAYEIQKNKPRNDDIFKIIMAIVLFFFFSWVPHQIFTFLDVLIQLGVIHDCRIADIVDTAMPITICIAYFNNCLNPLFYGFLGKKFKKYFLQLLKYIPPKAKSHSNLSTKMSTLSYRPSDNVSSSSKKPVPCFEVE
Text: (§1) The compounds described in the present invention act as antagonists at the A II receptor level.
(§2) For the characterization and the evaluation of the effectiveness of the compounds of the invention, in vitro tests (such as the inhibition of the A II-induced contraction in the rabbit aorta and the displacement of ^125 I-Sar^1 -Ile^8 -AT II or [^3 H] AT II in the rat adrenal cortex) and an in vivo test (the inhibition of the A II-induced pressory response in the ganglio-blocked normotensive rat) were selected.

[2] = target: A II receptor; test: receptor binding test: displacement of 125I-Sar1-Ile8-AT II or [3H] AT II in the rat adrenal cortex
Text: as §1, §2

`CCCCc1nc(Cl)c(COCc2ccccc2C(=O)O)n1Cc1ccc(-c2ccccc2-c2nnn[nH]2)cc1` [ex. 18, 2-butyl-5-[(2-carboxyphenyl)methoxymethyl]-4-chloro-1-[[2'-(1H-tetrazol-5-yl)-1,1'-biphenyl-4-yl]methyl]-1H-imidazole] was tested, and the Kb [1] was 0.2 nM and the Ki [2] was 4.4 nM.
In the case of `CCCCc1nc(Cl)c(COCc2occc2C(=O)O)n1Cc1ccc(-c2ccccc2-c2nnn[nH]2)cc1` [2-butyl-5-[(3-carboxyfuran-2-yl)methoxymethyl]-4-chloro-1-[[2'-(1H-tetrazol-5-yl)-1,1'-biphenyl-4-yl]methyl]-1H-imidazole], the Kb [1] is reported as 1.26 nM and the Ki [2] is reported as 3.2 nM.
